# Experiments:
# ACACB [1] = assay: qRT-PCR mRNA expression in HepG2 cells; type: cell-based, human
# Experimental: (§1) The human HepG2 cells and HEK 293T cells used in the following examples were originally obtained from the American Tissue Culture Collection (ATCC, USA). The human HCC HepG2 cell line was cultured in Minimum Essential Medium Eagle (Sigma) supplemented with 10% fetal bovine serum (FBS) (Invitrogen), 2.2 g/L of sodium bicarbonate (Sigma), 0.1 mM of non-essential amino acids (Caisson), 1 mM of sodium pyruvate (Invitrogen), and 10 of ml/L penicillin-streptomycin-amphotericin solution (Biological Industries). Human HEK-293T cells were maintained in high-glucose Dulbecco's modified eagle medium (Invitrogen) supplemented with 10% FBS and 3.7 g/L of sodium bicarbonate (Sigma). Both cell lines were cultured at 37° C. and 5% CO2. A 50 mM stock solution of berberine chloride (Sigma-Aldrich) was prepared in dimethyl sulfoxide (DMSO). Cells were treated with 40 μM of berberine chloride or 0.08% DMSO as the control. For induction of lipid droplets formation in cultured cells, 200 μM of oleic acid (Sigma-Aldrich) was added into the culture medium for 24 h. Total RNA was extracted using a TRIZOL reagent (Invitrogen) according to the manufacturer's protocol. The total RNA quantity was measured using a NanoDrop ND-1000 spectrophotometer (Nanodrop Technologies). The total RNA quality and integrity were assayed using an Agilent 2100 bioanalyzer with an RNA 6000 nano kit (Agilent Technologies). Total RNAs (1 μg) were reverse-transcribed into cDNA by using M-MuLV Reverse Transcriptase (Thermo) and Oligo(dT)12-18 primers (Invitrogen) according to the manufacturer's protocol. The cDNA were then used for a real-time PCR with a LightCycler 480 SYBR Green I Master (Roche) by using primers shown in the following Table 1. The gene expression levels were normalized to GAPDH levels. […] Cells were incubated for 24 h or 48 h with a microRNA mimic or inhibitor prior to RNA purification for gene expression analysis, and were incubated for 72 h for protein expression analysis.
# MAT1A = assay: qRT-PCR mRNA expression in HepG2 cells; type: cell-based, human
# Experimental: as §1
# MAT2A = assay: qRT-PCR mRNA expression in HepG2 cells; type: cell-based, human; conditions: for decrease in mRNA expression of MAT2A: HepG2, 50 nM mimic transfection
# Experimental: as §1
# MAT2B = assay: qRT-PCR mRNA expression in HepG2 cells; type: cell-based, human
# Experimental: as §1
# ACACA [2] = assay: qRT-PCR mRNA expression in primary human hepatocytes; type: cell-based; conditions: PHH
# Experimental: (§2) The primary human hepatocytes from Caucasian donors were purchased from Invitrogen and cultured following the manufacturer's instructions. The hepatocytes were thawed and transferred into cryopreserved hepatocytes recovery medium (CM7000, Invitrogen), centrifuging at room temperature, 100×g for 10 min. Then, the hepatocytes were diluted to seeding density with plating medium (CM3000, Invitrogen) and added into collagen I-coated plates (Invitrogen). These plates were incubated at 37° C. for 4-6 hours under 5% CO2 for forming a monolayer. Then, plating medium was replaced by overlay incubation medium (CM4000 and 0.35 mg/mL Geltrex™ Matrix, Invitrogen), and the incubation medium was replaced daily. In the following examples, hepatocytes form 3 to 4 donors were used for experiments. A 50 mM stock solution of berberine chloride (Sigma-Aldrich) was prepared in dimethyl sulfoxide (DMSO). Cells were treated with 40 μM of berberine chloride or 0.08% DMSO as the control. For induction of lipid droplets formation in cultured cells, 200 μM of oleic acid (Sigma-Aldrich) was added into the culture medium for 24 h. Total RNA was extracted using a TRIZOL reagent (Invitrogen) according to the manufacturer's protocol. The total RNA quantity was measured using a NanoDrop ND-1000 spectrophotometer (Nanodrop Technologies). The total RNA quality and integrity were assayed using an Agilent 2100 bioanalyzer with an RNA 6000 nano kit (Agilent Technologies). Total RNAs (1 μg) were reverse-transcribed into cDNA by using M-MuLV Reverse Transcriptase (Thermo) and Oligo(dT)12-18 primers (Invitrogen) according to the manufacturer's protocol. The cDNA were then used for a real-time PCR with a LightCycler 480 SYBR Green I Master (Roche) by using primers shown in the following Table 1. The gene expression levels were normalized to GAPDH levels.
# ACACB [3] = assay: as above; type: cell-based; conditions: PHH
# Experimental: as §2
# ACSM2A = assay: as above; type: cell-based; conditions: PHH, 40 μM berberine, 2-4 h
# Experimental: as §2
# DGAT2 = assay: as above; type: cell-based; conditions: PHH
# Experimental: as §2
# HLCS = assay: as above; type: cell-based
# Experimental: as §2
# IL6R = assay: as above; type: cell-based; conditions: PHH, 40 μM berberine, 4-8 h
# Experimental: as §2
# MTOR = assay: as above; type: cell-based; conditions: for decrease in MTOR expression: 50 nM mimic transfection
# Experimental: as §2
# NAMPT = assay: as above; type: cell-based; conditions: PHH, 40 μM berberine, 4-8 h
# Experimental: as §2
# RPTOR = assay: as above; type: cell-based; conditions: for decrease in RPTOR expression: 50 nM mimic transfection
# Experimental: as §2
# ACACA [4] = assay: qRT-PCR mRNA expression in HepG2 cells; type: cell-based, human; conditions: HepG2, mimic transfection, 24 h
# Experimental: as §1
# HepG2 cells = assay: Apoptosis (sub-G1 population) by flow cytometry with PI staining; type: cell-based, human; conditions: HepG2, 50 nM mimic transfection 72 h vs NC mimic
# Experimental: After transfection with 50 nM of hsa-miR-21-3p mimic or the negative-control mimic for 72 h, the HepG2 cells were trypsinized and counted. Apoptosis was detected by measuring the sub-G1 population by using flow cytometry with propidium iodide (PI) staining. In brief, the cells were fixed in 70% ethanol on ice for 15 min, and stained with the PI staining solution (20 μg/mL PI, 0.1% Triton-X 100, and 0.2 mg/mL RNase A in PBS) for 30 min at room temperature and analyzed using CyAn ADP (Beckman Coulter) flow cytometry with Summit software.
# [5] = tested on: intracellular malonyl-CoA; assay: Measurement of intracellular malonyl-CoA concentration in PHH cells; type: cell-based, human; conditions: 72-h mimic transfection
# Experimental: After transfection with 50 nM of miR-21-3p mimic or the negative-control mimic for 72 h, the PHH cells and HepG2 cells were trypsinized. The intracellular malonyl-CoA concentration was measured using the malonyl-CoA ELISA Kit (MyBioSource) according to the manufacturer's instructions.
# ACACA mRNA = assay: mRNA stability assay; type: cell-based, human
# [6] = HepG2, 40 μM berberine, up to 8 h
# [7] = HepG2, 50 nM mimic transfection, 48 h
# [8] = 24 h, cells not named in b149 (primary human hepatocytes)
compound,measurement,setting,value
COc1ccc2cc3[n+](cc2c1OC)CCc1cc2c(cc1-3)OCO2 [berberine],ACACB expression,"ACACB [1]; HepG2, berberine (data not shown)",consistently decreased
same,MAT1A mRNA expression change,MAT1A; [6],did not change substantially
same,MAT2A mRNA level decrease,"MAT2A; HepG2, 40 μM berberine, 2 h vs 0.08% DMSO",1.8 fold
same,MAT2A mRNA level decrease,"MAT2A; HepG2, 40 μM berberine, 4 h (lowest value) vs 0.08% DMSO",3.8 fold
same,MAT2A mRNA level change (given as increase),"MAT2A; HepG2, 40 μM berberine, 8 h vs 0.08% DMSO",2.2 fold
same,MAT2B mRNA expression change,MAT2B; [6],did not change substantially
same,ACACA expression decrease,"ACACA [2]; 40 μM berberine, 8 h",2.1 fold
same,mRNA expression of ACACB,"ACACB [3]; 40 μM berberine, 4-8 h",decreases
same,mRNA expression of ACSM2A,ACSM2A,considerably decreases
same,changes in DGAT2 expression levels,"DGAT2; 40 μM berberine, 2-8 h",not significant
same,mRNA expression of HLCS,"HLCS; PHH, 40 μM berberine, 4-8 h",decreases
same,mRNA expression of IL6R,IL6R,decreases
same,mRNA expression of MTOR,"MTOR; PHH, 40 μM berberine, 4-8 h",decreases
same,mRNA expression of NAMPT,NAMPT,increase
same,mRNA expression of RPTOR,"RPTOR; PHH, 40 μM berberine, 4-8 h",decreases
"hsa-miR-21-3p (CAACACCAGUCGAUGGGCUGU; listed as RNA, chemistry not given here) [miR-21-3p mimic]",decrease in mRNA expression of ACACA,ACACA [4],44%
same,decrease in mRNA expression of ACACB,"ACACB [1]; HepG2, mimic transfection, 24 h",50%
same,decrease in mRNA expression of MAT1A,MAT1A; [7],but not in that of MAT1A
same,decrease in mRNA expression of MAT2A,MAT2A; 24 hours,> 50%
same,decrease in mRNA expression of MAT2A,MAT2A; 48 h,> 50%
same,decrease in mRNA expression of MAT2B,MAT2B; [7],> 50%
same,apoptosis (sub-G1 population),HepG2 cells,induced apoptosis
same,ACACA expression decrease,"ACACA [2]; 50 nM mimic transfection, 48 h",1.6 fold
same,ACACB expression decrease,"ACACB [3]; 50 nM mimic transfection, 48 h",1.8 fold
same,decrease in mRNA expression levels of DGAT2,"DGAT2; mimic transfection, 48 h",1.5 fold
same,decrease in HLCS expression,"HLCS; 50 nM mimic transfection, 48 h, cells not given",1.5 fold
same,decrease in MTOR expression,MTOR; [8],1.4 fold
same,decrease in MTOR expression,"MTOR; 48 h, cells not given",2.5 fold
same,decrease in RPTOR expression,RPTOR; [8],1.6 fold
same,decrease in RPTOR expression,"RPTOR; 48 h, cells not given",2.2 fold
same,intracellular malonyl-CoA concentration decrease,[5],2.2 fold
same,half-life of ACACA mRNA,ACACA mRNA,reduced the half-life of ACACA mRNA
